From US20120095325A1, “TREATMENT OF BRAIN DISEASES VIA ULTRASOUND/MAGNETIC TARGETING DELIVERY AND TRACING OF THERAPEUTIC AGENTS” (Chang Gung Medical Foundation, Linkou Branch, priority 2010, published 2012)
Converted amounts (≈) assume the structure as drawn.

Key:
breast carcinoma = settings: cited from earlier work
[1] = cited from earlier work
Rat glioma C6 cells = experiment: Cell toxicity in vitro, XTT assay; format: cell-based; settings: 12 hrs, no magnetic field
Protocol: Rat glioma C6 cells were cultured in the culture medium RPMI 1640 supplemented with 2.2 mg/mL sodium carbonate, 10% FBS, 50 μg/mL gentamycin, 50 μg/mL penicillin and 50 μg/mL streptomycin at 37° C. and 5% CO2. Approximately 10,000 cells were placed in each well of a 96-well culture plate and incubated in a humidified chamber at 37° C. and 5% CO2 for 24 hrs.
Before counting viable cells by the XTT assay, the culture medium in each well was removed and cells were incubated in 120 μL of XTT for 3 hrs. After the reaction, a 100 μL aliquot of the solution in each well was sampled and transferred to a 96-well counting dish, followed by measuring absorbance at OD490 using an ELISA reader, so as to determine cell viability (%). The experimental results were expressed as mean±SD. The in vitro cytotoxicities of MNPs, epirubicin and epirubicin-MNPs on C6 cells were evaluated by the IC50 values thereof.

in vivo = settings: Sprague-Dawley, rat
Protocol: All animal experiments were approved by the Institutional Animal Care and Use Committee of Chang Gung University and adhered to their experimental animal care guidelines. […] Brain tumors were induced in another 14 rats by injection of cultured C6 tumor cells. Briefly, C6 tumor cells (10^6 cells/plate) were injected into the brains using a microdialysis pump system (CMA Microdialysis). Animals underwent FUS treatment on Day 10 after tumor implantation to determine if the method could open an area of the BBB sufficiently large to cover the area of the induced tumors.
Before the FUS treatment, the rats were anesthetized by i.p. injection of chlorohydrate (30 mg/kg). The top of the cranium of each rat was shaved with clippers, and a PE-50 catheter was inserted into the jugular vein. The animal's head was attached tightly to a 4-cm^2 thin-film window directly under an acrylic water tank. The animal's cranial opening was filled with degassed water to serve as an acoustic coupling device. SonoVue® SF6-coated US microbubbles (mean diameter 2-5 μm, 2.5 μg/kg; Bracco) were administered i.v. before sonication (with a time lapse<10 s). Each bolus injection contained 0.1 mL of microbubble/kg of body weight mixed with 0.2 mL of saline solution. A heparin flush (0.2 mL) was subsequently performed.
Animal experiments were monitored using the 3-T magnetic resonance imager to localize the geometric center of the FUS and the energy exposure site. US was delivered to the brain transcranially using a MR-compatible spherical transducer (diameter, 60 mm; radius of curvature, 80 mm; frequency, 400 kHz, electric-to-acoustic efficiency, 70%; Imasonics) with the center of the focal zone positioned at a penetration depth of 2 to 3 mm in each hemisphere. Single burst-mode US was delivered, with a burst length of 10 ms, a pulse-repetition frequency of 1 Hz, and total sonication duration of 120 s. For optimization studies, the input electric power used was 2 W, corresponding to an acoustic negative peak (i/e., spatial-peak, temporal-peak) pressure amplitude measured through the animal cranium equal to 0.62 MPa.
In the MT treatment, a permanent magnet having a peak magnetic flux density of 0.18 T, 0.4 T or 0.55 T was used to produce an inhomogeneous magnetic field. To concentrate the magnetic flux density onto the disrupted region of the BBB, the magnet was tilted at an angle relative to the animal's brain, attached to the animal's scalp, and supported and tightened using a custom-made plastic belt for the desired duration (3-24 hrs). MRI images were acquired immediately after removal of the magnet.
Animals' brains were monitored by MRI after the FUS treatment and/or the MT treatment. All MRI images were acquired on a 3-T scanner using the standard wrist coil with an inner diameter of 13 cm. The animals were anesthetized with 2% isoflurane throughout the MRI imaging process, placed in an acrylic holder, and positioned in the center of the magnet. An i.v. bolus (0.1 mmol/kg) of gadopentetate dimeglumine MRI contrast agent (Magnevist; Berlex) was administered before scanning. To identify the region of the BBB disrupted by the FUS treatment, contrast-enhanced T1 turbo spin-echo sequences were acquired using the following parameters: repetition/echo time, 780 ms/15 ms; slice thickness, 1.4 mm; matrix size, 128×256; field of view, 39×60 mm (resolution, 0.3×0.3 mm). T2-weighted images were obtained to produce R2 maps both in gel phantom or in vivo experiments by using a double-TE spinecho sequence and acquired three times, using the following parameters: repetition time, 3,860 ms, echo time, 8/14, 28/57, and 85/228 ms; matrix, 128×256; field of view, 38×76 mm (resolution, 0.3×0.3 mm); and slice thickness, 1.4 mm.

concentration at 6 hr (in vivo) [ng/g]	epirubicin concentration measured in tissues per iron (range) (in vivo)	epirubicin delivered, assessed by ICP-OES/HPLC (in vivo)	epirubicin delivered, assessed by MRI (in vivo)	mean immobilization ratio in tissues (in vivo) [μg epirubicin/mg iron ion]	Compound	therapeutic range reported in vivo (breast carcinoma; human, in vivo) [ng/g tumor]	clinical response rate (breast carcinoma; patients with breast carcinoma) [%]	doxorubicin delivered into normal brains by FUS ([1]; FUS treatment used safely)	doxorubicin delivery by FUS ([1]; increased delivery, at the expense of increased damage to brain tissue)	IC50 (Rat glioma C6 cells) [µg/mL]	epirubicin accumulated in tissue (in vivo)
–	–	–	–	–	COc1cccc2c1C(=O)c1c(O)c3c(c(O)c1C2=O)C[C@@](O)(C(=O)CO)C[C@@H]3O[C@H]1C[C@H](N)[C@H](O)[C@H](C)O1 [doxorubicin]	819±482	39	886±327 ng doxorubicin per gram of tissue	5,336±659 ng/g	–	–
21700	383-415 μg epirubicin/mg iron ion	1,162±1,028 ng/g	1,197±226 ng/g	395.6±17.3	COc1cccc2c1C(=O)c1c(O)c3c(c(O)c1C2=O)C[C@@](O)(C(=O)CO)C[C@@H]3O[C@H]1C[C@H](N)[C@@H](O)[C@H](C)O1 [epirubicin]	–	–	–	–	6.7 (≈ 12.3 µM)	1,336±1,182 ng epirubicin per gram of tissue
